Patent publication US9775903B2, “1-deoxy analogs of 1,25-dihydroxyvitamin D3 compounds” (JOHNS HOPKINS UNIVERSITY, priority 2010, dated 2017)

Legend:
VDR [1] = target: T1, VDR (Homo sapiens, UniProt P11473); conditions: relative to active Vitamin D hormones / 1,25-hydroxyvitamin D3; cited from earlier work
T1 sequence (P11473 1-427): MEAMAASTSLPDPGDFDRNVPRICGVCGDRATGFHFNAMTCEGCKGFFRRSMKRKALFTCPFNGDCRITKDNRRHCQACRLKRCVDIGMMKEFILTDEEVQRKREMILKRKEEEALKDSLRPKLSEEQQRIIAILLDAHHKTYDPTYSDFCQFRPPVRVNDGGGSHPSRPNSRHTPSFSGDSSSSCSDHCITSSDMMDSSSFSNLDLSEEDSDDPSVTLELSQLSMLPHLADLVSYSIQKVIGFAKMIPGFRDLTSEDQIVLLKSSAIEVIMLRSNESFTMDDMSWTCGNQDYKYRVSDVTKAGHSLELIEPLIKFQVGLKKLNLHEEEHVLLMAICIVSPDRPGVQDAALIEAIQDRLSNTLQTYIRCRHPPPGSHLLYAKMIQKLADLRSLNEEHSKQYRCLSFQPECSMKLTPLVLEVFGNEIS

VDR [2] = target: T1, VDR; assay: Binding to the Vitamin D Receptor (competition with [26,27-methyl-3H]-1α,25(OH)2D3)
Protocol: Unbound radioactive ligand was removed by incubation with dextran-charcoal for 30 min on ice and pelleted by centrifugation at 2000 rpm for 10 min at 4° C. The radioactivity in 100 mL of the supernatant was measured using a scintillation counter. The control reactions contained either no VDR protein (background) or no competing ligand (maximum binding). The mean background binding was subtracted and the data divided by the mean maximum binding to yield B/Bmax values. The concentration necessary to displace 50% of [26,27-methyl-^3H]-1α,25(OH)2D3 from VDR was calculated as the B50.

[3] = test system: CYP24 expression in PMA-stimulated U937 cells; assay: CYP24 expression in PMA-stimulated U937 cells, which do not substantially express CYP27B1; type: cell-based, human; conditions: concentrations up to 100 nM, 6 hr
Protocol: PMA-stimulated U937 cells were maintained in RPMI media supplemented with 10 mM HEPES, 1 mM sodium pyruvate, 0.1 mM non-essential amino acids and 10% Fetal Bovine Serum at optimal cell density (between 1×10^5 cells/mL and 2×10^6 cells/mL). Prior to treatment, cells were pelleted by centrifugation and resuspended to a concentration of 5×10^5 cells/mL. Cells were then treated with phorbol myristate acetate (PMA) at a final concentration of 20 ng/ml. To each well of a 24-well plate, 1 ml of cell suspension was added, which was incubated overnight at 37° C.+5% CO2. The following day, RPMI media was replaced with fresh media and cells were treated in triplicate with vehicle or compounds at various concentrations (10^-7 to 10^-9 M) for 6 hr at 37° C. Media was removed and extraction of cellular RNA was performed using Trizol® (Invitrogen). Aliquots of RNA were reverse-transcribed to cDNA using oligo dT primers and Thermoscript reverse transcriptase according to the manufacturer's instructions (Invitrogen). Quantitative real-time PCR was performed using an ABI StepOnePlus system using the Taqman Universal PCR Master Mix. PCR reaction volumes of 20 μl were used with 50 cycles of amplification. Each cDNA sample was tested in duplicate using TaqMan® gene expression assays with the following ID numbers: human GAPDH (Hs99999905_m1), human CYP24 (Hs00167999_m1). The real-time PCR results were analyzed using the StepOne system software V2.1. Gene expression levels were calculated using the comparative CT method, and normalized to the GAPDH expression levels. The U937 cells have a low level of expression of CYP27B1 mRNA, for example compared to HPK1a-ras cells.

[4] = test system: CYP24 transcription in HPK1a-ras cells; assay: CYP24 transcription in HPK1a-ras cells (real-time PCR); type: cell-based, human; conditions: for concentration at which significant transcriptional activity (CYP24) is displayed / CYP24 transcription activity (in words): HPK1a-ras cells; for concentration at which significant transcriptional activity (CYP24) is displayed: 6 hr; for CYP24 transcription activity (in words): which express CYP27B1; for induction of CYP24 transcription compared to vehicle: 6 or 7 hours
Protocol: (§1) HPK1a-ras cells were maintained in Dulbecco's Modified Eagle's medium (DMEM) supplemented with 10% Fetal Bovine Serum and plated at 1×10^5 cells/well in 24-well plates. The media was exchanged after 24 hours for DMEM containing 1% Bovine Serum Albumin. Cells were treated in duplicate with Ibii and control compounds at various concentrations (10^−6 to 10^−9M) for 6 or 7 hours. Extraction of cellular RNA was performed using Trizol® (Invitrogen). Aliquots of RNA were reverse-transcribed to cDNA using random hexamers and Thermoscript reverse transcriptase according to the manufacturer's instructions (Invitrogen). Quantitative real-time PCR was performed using an ABI StepOnePlus system using the Taqman Universal PCR Master Mix. PCR reaction volumes of 20 μL were used with 50 cycles of amplification. Each cDNA sample was tested in duplicate using TaqMan® gene expression assays with the following ID numbers: human GAPDH (Hs99999905_m1), human CYP24 (Hs00167999_m1). The real-time PCR results were analyzed using the StepOne system software V2.1. Gene expression levels were calculated using the comparative CT method, and normalized to the GAPDH expression levels.
(§2) CYP24a1 transcription activity in HPK1a-ras cells was determined for prodrugs Iaii and IIaii. As with the protocol described in Example 7, HPK1a-ras cells were maintained in Dulbecco's Modified Eagle's medium (DMEM) supplemented with 10% Fetal Bovine Serum and plated at 1×10^5 cells/well in 24-well plates. Prior to treatment with compounds, cells were washed with PBS and replaced with DMEM containing 1% Bovine Serum Albumin. Cells were treated in duplicate with vehicle or compounds at various concentrations (10^-6 to 10^-9 M) for 6 hr at 37° C. Media was removed and extraction of cellular RNA was performed using Trizol® (Invitrogen). Aliquots of RNA were reverse-transcribed to cDNA using oligo dT primers and Thermoscript reverse transcriptase according to the manufacturer's instructions (Invitrogen). Quantitative real-time PCR was performed using an ABI StepOnePlus system using the Taqman Universal PCR Master Mix. PCR reaction volumes of 20 μl were used with 50 cycles of amplification. Each cDNA sample was tested in duplicate using TaqMan® gene expression assays with the following ID numbers: human GAPDH (Hs99999905_m1), human CYP24 (Hs00167999_m1). The real-time PCR results were analyzed using the StepOne system software V2.1. Gene expression levels were calculated using the comparative CT method, and normalized to the GAPDH expression levels

PTH [5] = assay: Serum PTH in adenine-induced uremic rats; type: in vivo, male Sprague-Dawley rats; conditions: adenine treated rats
From the text: (§3) Day 0 is the first day of dosing.

FGF23 = assay: Serum FGF23 in adenine-induced uremic rats; type: in vivo, male Sprague-Dawley rats; conditions: adenine treated rats, i.v. 0.2-10 mcg/kg, three times per week for two weeks
From the text: as §3

[6] = Body weight in vitamin D deficient rats; type: in vivo, Sprague Dawley rats; conditions: IV and oral, 160 μg/kg
Protocol: (§4) Vitamin D deficient Sprague Dawley rats were treated with Ibii 3×/week for five days by IV and oral routes, according to the Table below: […]

PTH [7] = assay: PTH in vitamin D deficient rats, IV and oral dosing; type: in vivo, Sprague Dawley rats; conditions: 160 μg/kg, 3×/week for five days
Protocol: as §4

[8] = test system: CYP27b1 transcription in HPK1a-ras cells; assay: CYP27b1 transcription in HPK1a-ras cells (real-time PCR); type: cell-based, human
Protocol: as §1, with “duplicate.” for “duplicate using TaqMan® gene expression assays with the following ID numbers: human GAPDH (Hs99999905_m1), human CYP24 (Hs00167999_m1).”

CYP24 = target: T2, CYP24 (Homo sapiens, UniProt Q07973); assay: CYP24 inhibitory activity: CYP24a1 transcription in HPK1a-ras cells treated with calcitriol plus test compound; type: cell-based; conditions: 1 μM analog with 0.1 nM or 1 nM calcitriol, 6 hours
T2 construct: CYP24a1 relative transcription in HPK1a-ras cells treated for 6 hours with calcitriol; endogenous in cells; host or cells: HPK1a-ras cells
T2 sequence (Q07973 36-514): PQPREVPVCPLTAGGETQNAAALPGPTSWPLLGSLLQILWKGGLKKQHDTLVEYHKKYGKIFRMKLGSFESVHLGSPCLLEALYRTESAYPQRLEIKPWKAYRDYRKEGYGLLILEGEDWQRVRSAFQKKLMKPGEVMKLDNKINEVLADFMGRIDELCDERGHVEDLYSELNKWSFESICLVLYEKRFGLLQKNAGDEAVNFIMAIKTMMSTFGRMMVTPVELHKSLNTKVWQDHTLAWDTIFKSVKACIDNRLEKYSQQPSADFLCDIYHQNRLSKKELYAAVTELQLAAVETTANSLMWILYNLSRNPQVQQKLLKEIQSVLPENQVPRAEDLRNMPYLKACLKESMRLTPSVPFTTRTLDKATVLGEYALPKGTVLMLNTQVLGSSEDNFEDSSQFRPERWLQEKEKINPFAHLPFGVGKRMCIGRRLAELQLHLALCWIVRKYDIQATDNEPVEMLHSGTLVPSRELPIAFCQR
Protocol: as §2, with “Aliquots of RNA were reverse-transcribed to cDNA using oligo dT primers and Thermoscript reverse transcriptase according to the manufacturer's instructions (Invitrogen).” left out, “PCR reaction volumes of 20 μl were used with 50 cycles of amplification. Each cDNA sample was tested in duplicate using TaqMan® gene expression assays with the following ID numbers: human GAPDH (Hs99999905_m1), human CYP24 (Hs00167999_m1).” left out
Transcriptional activity of calcitriol and Prodrugs was determined by CYP24a1 relative transcription in HPK1a-ras cells treated for 6 hours with calcitriol, combinations of calcitriol with Prodrugs Icii, Idii, and Ieii, and combinations of calcitriol with 1-hydroxylated active forms of Prodrugs Icii, Idii, and Ieii which are known CYP24 inhibitors.

Row | CYP24 inhibitory effect (increased CYP24a1 transcription with calcitriol) (CYP24) | SMILES | binding to the VDR (in words) (VDR [2]) | relative CYP24 expression (compared to calcitriol) [3] | concentration at which significant transcriptional activity (CYP24) is displayed [4] [nM] | CYP24 transcription activity (in words) [4] | other results
1 |  | C=C1CC[C@H](O)C/C1=C/C=C1\CCC[C@]2(C)C([C@H](C)CCCC(C)(C)O)CC[C@@H]12 (stereo partly drawn) [25-hydroxyvitamin D3] |  |  |  |  | affinity for the VDR, fold lower than the active Vitamin D hormone (VDR [1]): 100 fold
2 |  | C=CCO/N=C(\CCC[C@@H](C)C1=CC[C@H]2/C(=C/C=C3/C[C@@H](O)CCC3=C)CCC[C@]12C)C(C)(C)C [Prodrug IIaii, 7-{4-[2-(5-Hydroxy-2-methylene-cyclohexylidene)-ethylidene]-7α-methyl-3α,4,5,6,7,7a-hexahydro-3H-inden-1-yl}-2,2-dimethyl-octan-3-one 0-allyl-oxime] | do not bind to the VDR | inactive | 1000 | active | 
3 |  | C=C1CCC(O)CC1=CC=C1CCCC2(C)C1CCC2C(C)CCC(F)(F)S(=O)(=O)C(C)(C)C (stereo not drawn) [Prodrug Iaii, 3-(2-{1-[4,4-Difluoro-1-methyl-4-(2-methyl-propane-2-sulfonyl)-butyl]-7α-methyl-3,3α,5,6,7,7a-hexahydro-inden-4-ylidene}-ethylidene)-4-methylene-cyclohexanol] | do not bind to the VDR | inactive | 1000 | active | 
4 |  | C=C1CCC(O)CC1=CC=C1CCCC2(C)C(C(C)CC=CS(=O)(=O)C(C)(C)C)=CCC12 (stereo not drawn) [Prodrug Ibii, 4-Methylene-3-(2-{7α-methyl-1-[1-methyl-4-(2-methyl-propane-2-sulfonyl)-but-3-enyl]-3,3α,5,6,7,7a-hexahydro-inden-4-ylidene}-ethylidene)-cyclohexanol] |  | inactive | 100 |  | potency in decreasing circulating iPTH levels versus the 1-hydroxy active form (PTH [5]; i.v.): comparable to but lower than the 1-hydroxy active form; circulating iPTH levels in serum (PTH [5]; i.v. 0.2-10 mcg/kg, three times per week for two weeks): can lower circulating iPTH levels; effect on serum FGF23 levels (FGF23): does not increase serum FGF23 levels; effects on body weight (overt toxicity) [6]: does not exhibit overt toxicity; IC50 (VDR [2]; read-out: B50 (concentration necessary to displace 50% of [26,27-methyl-3H]-1α,25(OH)2D3 from VDR), in vitro, human recombinant VDR): > 1 µM; induction of CYP24 transcription compared to vehicle ([4]; 100 nM, HPK1aRas cells): about 100 fold; induction of CYP24 transcription compared to vehicle ([4]; 1 μM, HPK1aRas cells): about 500 fold; potency in CYP24 transcription relative to its 1-hydroxylated analog ([4]; HPK1aRas cells): about 1/100; induction of CYP24A1 transcription at lower concentrations ([4]; concentrations below 100 nM, HPK1aRas cells): did not significantly induce; effect on PTH (PTH [7]; intravenous): can effectively lower PTH; effect on PTH (PTH [7]; oral): can effectively lower PTH; transcription of CYP27b1 compared to vehicle [8]: not significantly affected
5 | CYP24 inhibitory effect | C=C1CCC(O)CC1=CC=C1CCCC2(C)C1CCC2C(C)CCCS(=N)(=O)c1ccccc1 (stereo not drawn) [Prodrug Icii, 3-{2-[1-(4-Benzenesulfoximine-1-methyl-butyl)-7α-methyl-octahydro-inden-4-ylidene]-ethylidene}-4-methylene-cyclohexanol] |  | inactive |  |  | 
6 | CYP24 inhibitory effect | C=C1CCC(O)CC1=CC=C1CCCC2(C)C1CCC2C(C)CCS(=O)(=O)c1ccccc1 (stereo not drawn) [Prodrug Idii, 3-{2-[1-(3-Benzenesulfonyl-1-methyl-propyl)-7α-methyl-octahydro-inden-4-ylidene]-ethylidene}-4-methylene-cyclohexanol] |  | inactive |  |  | 
